The values below come from patent US20090148391A1, “[…] ACTIVE PREPARATIONS COMPRISING […] DERIVATIVES AND FURTHER SKIN AND/OR HAIR LIGHTENING AND/OR SENILE KERATOSIS REDUCING COMPOUNDS” (SYMRISE GmbH & Co. KG, priority 2006, published 2009).

One test relates to 3T3 firbrosarcoma cells. Conditions: cited from earlier work.
The test system of test [1] is B16V mouse melanoma cells. Conditions: cited from earlier work.
A further test relates to fungal-tyrosinase. As to the kind of experiment: Tyrosinase-Assay: oxidation of L-DOPA to dopachrome with or without test substance, photometric detection at 475 nm. It is filed as biochemical. Conditions: weight ratio of the mixture; 50 u/ml fungal-tyrosinase, pH 6.8, 37° C., L-DOPA 0.1 mg/ml.

Procedure for fungal-tyrosinase: The principle of the assay is to oxidise L-DOPA to dopachrome with or without the test substance under physiological conditions in a controlled reaction. Dopachrome and dopaquinone is detected via photometric detection methods. Commercially available fungal-tyrosinase is used for testing the enzyme activity and the correlating inhibition of melanin production.
The enzymatic reaction was conducted with or without a potential inhibitor of the tyrosinase of constituents (a) and (b), such as styrylresorcinol of formula 3 (more than 99% purity) of constituent (a) alone, specific compounds of the constituent b) selected from the group consisting of (i) chelating agents, (ii) phenolic derivatives, plant extracts with an amount of phenolic derivatives and (iii) organic acid derivatives alone, as well as mixtures thereof.
The concentrations of the inhibitor or a mixture thereof range from 0.1 to 1000 μg/ml. The enzyme activity was adjusted to 50 u/ml fungal-tyrosinase in 66.7 mM phosphate buffer (pH=6.8). The reaction mixture was incubated for 10 minutes in a 96-well microtiter plate in a horizontal agitator at 37° C. Then L-DOPA (end concentration: 0.1 mg/ml). The enzymatic conversion to dopachrome is related to the inhibition activity of the single test substances or the mixture thereof, which is shown in a brown discolouration, which can be detected at 475 nm. […]

Take `CC(c1ccccc1)c1ccc(O)cc1O` (stereo not drawn) [styrylresorcinol of the formula 3, 4-(1-phenylethyl)-1,3-dihydroxybenzene]: the tyrosinase-inhibiting activity entry (with 3T3 firbrosarcoma cells; in test [1]) was “clearly demonstrated” in each case.

On to `O=c1cc(CO)occ1O` [Kojic acid, 5-hydroxy-2-hydroxymethyl-4-pyranone], for which, in the test on fungal-tyrosinase, the “Ratio 4-(1-phenylthyl)-1,3-dihydroxybenzene CARN 85-27-8:(i) Chelating Agent showing synergistic enhanced lightening activity in the tyrosinase assay” value amounted to 1.3.
